Literature values in patent US12590059B2, “Process for the production of levetiracetam” (Suzhou BrightHope Pharmatech Co., Ltd, priority 2023, dated 2026).

Details: stated as known

- solubility in water: about 100 g/100 mL water
SMILES: CC[C@@H](C(N)=O)N1CCCC1=O [Levetiracetam]
